From US20040171061A1 (priority 2000, published 2004)

Key:
[1] = test system: autophagocytosis in yeast; details: nocodazole treatment disassembling microtubules (Kirisako et al. 1999); cited from earlier work
[2] = molecular target: autophagocytosis (luciferase uptake into isolated yeast vacuoles); test: In vitro autophagocytosis assay (luciferase uptake into isolated vacuoles); format: biochemical, Saccharomyces cerevisiae; details: standard uptake reaction, cell-free, sample without inhibitor as 100% reference, FIG. 7; read-out: IC50 for prevention of vesicle formation (luciferase uptake)
Experimental: This mixture was incubated for 1 h at 27° C. A 70 μl sample was chilled on ice, diluted with 300 μl 150 mM KCl in PS buffer, centrifuged (6800×g, 4 min, 2° C., fixed angle table top centrifuge), washed twice with 300 μl 150 mM KCl in PS buffer, and resuspended in 60 μl 150 mM KCl in PS buffer. 10 μl were used to check for complete vacuole recovery by determining the protein concentration or, alternatively, the activity of endogenous Pho8p (according to Haas et al., 1994). 40 μl of the suspension were treated with proteinase K (15 min, 0° C., 275 μg/ml, added from a 5 mg/ml stock in PS) to digest surface-bound luciferase. Digestion was terminated by adding an equal volume of freshly prepared PMSF solution (0.5 mM PMSF, 150 mM KCl, in PS buffer). Luciferase activity was determined from a 25 μl aliquot in a luminometer using a luciferase kit (Berthold Detection Systems, Pforzheim) according to the instructions of the supplier.

[3] = molecular target: firefly luciferase (Photinus pyralis, UniProt P08659); test: Direct influence on luciferase activity (control); format: biochemical; details: not shown
firefly luciferase, sequence (P08659 whole entry): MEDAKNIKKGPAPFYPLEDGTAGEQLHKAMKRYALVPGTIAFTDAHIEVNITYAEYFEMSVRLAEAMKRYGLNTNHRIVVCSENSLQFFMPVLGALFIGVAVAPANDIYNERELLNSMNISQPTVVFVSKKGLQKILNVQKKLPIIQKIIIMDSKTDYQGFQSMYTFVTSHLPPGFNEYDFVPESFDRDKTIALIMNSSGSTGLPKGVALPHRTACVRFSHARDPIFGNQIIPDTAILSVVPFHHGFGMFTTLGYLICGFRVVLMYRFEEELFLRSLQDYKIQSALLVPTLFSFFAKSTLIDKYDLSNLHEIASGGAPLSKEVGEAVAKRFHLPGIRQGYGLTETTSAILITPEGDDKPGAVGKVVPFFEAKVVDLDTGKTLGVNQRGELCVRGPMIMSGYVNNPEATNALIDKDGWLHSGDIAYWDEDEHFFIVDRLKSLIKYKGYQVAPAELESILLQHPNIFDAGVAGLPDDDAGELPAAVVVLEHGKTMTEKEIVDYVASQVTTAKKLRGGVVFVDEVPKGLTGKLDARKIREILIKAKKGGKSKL

COC(=O)Nc1nc2ccc(C(=O)c3cccs3)cc2[nH]1 [nocodazole]
block of autophagocytosis in yeast [1]: does not block autophagocytosis

Nc1nc2c(ncn2[C@@H]2O[C@H](COP(=O)(O)OP(=O)(O)OP(O)(O)=S)[C@@H](O)[C@H]2O)c(=O)[nH]1 [GTPγS]
IC50 [2]: 100 µM
influence on luciferase activity by itself [3]: did not influence luciferase activity by itself
